Laboratory results: US20230293560A1, “METHOD FOR MODULATING THE BLADDER MICROBIOME TO IMPROVE BLADDER HEALTH” (Kimberly-Clark Worldwide, Inc., priority 2020, published 2023)

Assays:
[1] = test system: commensal and pathogenic bacterial species; assay: Prebiotic screening, summary in words across species; type: cell-based; details: commensal (L. crispatus, L. gasseri, L. jensenii) and pathogenic (S. anginosus, E. faecalis) species
Experimental: (§1) Most of the prebiotic compounds were initially tested in a high throughput assay screening process, described further in the Test Methods section herein, but three prebiotics (as noted in Table 3) were tested using a plate assay screening process as described in the Test Methods section herein. The prebiotics were tested against the commensal bacterial species of Lactobacillus crispatus, Lactobacillus gasseri, and Lactobacillus jensenii and against the pathogenic bacterial species of Streptococcus anginosus and Enterococcus faecalis as shown in Table 2. The bacterial species were taken from different sources, listed as culture collection, bladder, and vagina.
(§2) The results of the assay plate screening of the prebiotic compounds of Table 1 against the bacterial species of Table 2 is documented in Table 3 with the results being described by the following legend: • ++ if growth and fermentation was equal to or greater than the positive control • + if growth and fermentation was less than the positive control • […] if weak or no growth or fermentation • NT if not tested Some codes were not tested based on the use or non-use by the bacteria, as a way to efficiently move through the assay plate screening to the competition assay, described below.
(§3) • 1. Create a 2% w/v stock of prebiotic or positive control (glucose/dextrose) to be tested in API 50 CHL media (Biomerieux, Marcy-I'Étoile, France). API 50 CHL media contains minimal amounts of carbon for growth, and a bromocresol purple as a pH indicator of fermentation. Filter sterilize media with a […]. Store at 4-6° C. until use. • 2. Add 180 μL of media containing the prebiotic to a sterile, flat bottom 96-well microtiter plate (Corning, Corning, NY). • 3. From a freezer stock subculture the bacteria twice into De Man, Rogosa and Sharpe (MRS) broth (BD Difco, Becton Dickinson, Franklin Lakes, NJ), 37° C., stationary, anaerobic, overnight. • 4. From the last subculture, plate onto an MRS agar plate (Teknova, Hollister, CA) and grow 37° C., stationary, anaerobic, overnight. • 5. Create a bacterial suspension by using a sterile tipped swab to transfer colonies of bacteria into a PBS suspension blank to a 0.5 MacFarland (S. anginosus or E. faecalis) or a 1 MacFarland (Lactobacillus species) from the MRS agar plate. • 6. Enumerate the starting culture. • 7. Inoculate the media alone and media containing the prebiotic or positive control with 20 μL of the bacterial suspension. • 8. Place the plate into a spectrophotometer (Molecular Devices, San Jose, CA) and read the plate every 20 minutes for 24-48 hours. Read wavelengths (OD 430, OD 590, and OD 660). A color change to yellow caused by a drop in pH will be read by an increase in the OD430 value and a decrease in the OD590 value and is indicative of bacterial fermentation. An increase in OD660 values is indicative of an increase in turbidity and bacterial growth.
• 1. An in house bacterial agar was created based on MRS agar (Kaplan and Hutkins, 2000) where the glucose is substituted for the prebiotic to be tested (either dextran MW ˜6,000, alpha-cyclodextrin, glucomannan, or pectin), bromocresol purple was included as a pH indicator. • 2. Bacteria were enumerated on each agar and color changes were recorded. Method for Competition Assay (Modified from “In Vitro Evaluation of Nutrients that Selectively Confer a Competitive Advantage to Lactobacilli” Vongsa et al, Beneficial Microbes 2016) • 1. Create 2% w/v stock of prebiotic or positive control (glucose/dextrose) as described above. • 2. From a freezer stock subculture the bacteria twice into De Man, Rogosa and Sharpe (MRS) broth (BD Difco, Becton Dickinson, Franklin Lakes, NJ), 37° C., stationary, anaerobic, overnight. • 3. From the last subculture, plate onto an MRS agar plate for L. crispatus KC18-1173-1 or blood agar for S. anginosus KC18-1131-3B, grow 37° C., stationary, anaerobic, overnight. • 4. […]

E. faecalis = assay: High throughput assay screening of prebiotics; type: cell-based, Enterococcus faecalis; design: key: ++: if growth and fermentation was equal to or greater than the positive control; +: if growth and fermentation was less than the positive control; +: if weak or no growth or fermentation; +^2: Bacteria demonstrated growth but no fermentation on the prebiotic; details: 2% w/v prebiotic in API 50 CHL media; for growth and fermentation vs positive control, Ef-1: E. faecalis ATCC BAA-2128, Culture Collection; for growth and fermentation vs positive control, Ef-2: E. faecalis KC16-7171-3, Bladder; for growth and fermentation vs positive control, Ef-3: E. faecalis KC17-3969-2B, Bladder; for growth and fermentation vs positive control, Ef-4: E. faecalis KC17-4331-3, Bladder
Experimental: as §1, §2, §3

L. gasseri = assay: High throughput assay screening of prebiotics; type: cell-based, Lactobacillus gasseri; design: key: ++: if growth and fermentation was equal to or greater than the positive control; +: if growth and fermentation was less than the positive control; +: if weak or no growth or fermentation; +^2: Bacteria demonstrated growth but no fermentation on the prebiotic; details: 2% w/v prebiotic in API 50 CHL media; for growth and fermentation vs positive control, Lg-1: L. gasseri KC16-7135-1, Bladder; for growth and fermentation vs positive control, Lg-2: L. gasseri KC16-7171-1, Bladder
Experimental: as §1, §2, §3

L. crispatus = assay: High throughput assay screening of prebiotics; type: cell-based, Lactobacillus crispatus; design: key: ++: if growth and fermentation was equal to or greater than the positive control; +: if growth and fermentation was less than the positive control; +: if weak or no growth or fermentation; +^2: Bacteria demonstrated growth but no fermentation on the prebiotic; details: 2% w/v prebiotic in API 50 CHL media; for growth and fermentation vs positive control, Lc-1: L. crispatus ATCC 33820, Culture Collection; for growth and fermentation vs positive control, Lc-2: L. crispatus KC16-7134-3C, Bladder; for growth and fermentation vs positive control, Lc-3: L. crispatus KC18-1173-1, Bladder; for growth and fermentation vs positive control, Lc-4: L. crispatus KC18-1174-1, Vagina
Experimental: as §1, §2, §3

S. anginosus = assay: High throughput assay screening of prebiotics; type: cell-based, Streptococcus anginosus; design: key: ++: if growth and fermentation was equal to or greater than the positive control; +: if growth and fermentation was less than the positive control; +: if weak or no growth or fermentation; +^2: Bacteria demonstrated growth but no fermentation on the prebiotic; details: 2% w/v prebiotic in API 50 CHL media; for growth and fermentation vs positive control, Sa-1: S. anginosus ATCC 33397, Culture Collection; for growth and fermentation vs positive control, Sa-2: S. anginosus KC18-1131-3B, Bladder
Experimental: as §1, §2, §3

Compound	overall outcome of the screening of Table 3, in words [1]	growth and fermentation vs positive control, Ef-1 (E. faecalis)	growth and fermentation vs positive control, Ef-2 (E. faecalis)	growth and fermentation vs positive control, Ef-3 (E. faecalis)	growth and fermentation vs positive control, Ef-4 (E. faecalis)	growth and fermentation vs positive control, Lg-1 (L. gasseri)	growth and fermentation vs positive control, Lg-2 (L. gasseri)	growth and fermentation vs positive control, Lc-1 (L. crispatus)	growth and fermentation vs positive control, Lc-2 (L. crispatus)	growth and fermentation vs positive control, Lc-3 (L. crispatus)	growth and fermentation vs positive control, Lc-4 (L. crispatus)	growth and fermentation vs positive control, Sa-1 (S. anginosus)	growth and fermentation vs positive control, Sa-2 (S. anginosus)	growth and fermentation vs positive control, Lg-4 (L. gasseri; L. gasseri KC18-1142-2, Bladder)
O=C(O)CC(O)C(=O)O (racemic) [DL-Malic acid, DL-Malic acid (Malate)]	not able to provide growth for most, if not all, commensal and pathogenic bacterial species	–	–	–	–	–	–	–	–	–	–	–	–	–
CC(=O)N[C@H]1C(O)O[C@H](CO)[C@@H](O)[C@@H]1O (stereo partly shown) [N-Acetylglucosamine]	able to provide growth on the commensal bacterial species, but also provided growth on the pathogenic bacterial species	++	++	++	++	++	++	++	+	++	+	++	++	–
OC[C@@H](O)[C@H](O)[C@@H](O)CO [Xylitol]	not able to provide growth for most, if not all, commensal and pathogenic bacterial species	–	–	–	–	–	–	–	–	–	–	–	–	–
OC[C@H]1O[C@@H](O[C@@H]2[C@@H](CO)OC(O)(CO)[C@H]2O)[C@H](O)[C@@H](O)[C@H]1O (mixture of isomers) [Lactulose]	–	–	–	+^2	+^2	–	–	–	–	–	++	–	++	+
O=C(CO)[C@@H](O)[C@@H](O)[C@H](O)CO [Tagatose]	–	++	++	++	++	–	–	–	–	–	–	–	–	–
OC[C@H]1O[C@@H](O)[C@H](O)[C@@H](O)[C@@H]1O [Beta-D-glucose, Beta-D-Glucose]	able to provide growth on the commensal bacterial species, but also provided growth on the pathogenic bacterial species	++	++	++	++	++	++	++	++	++	++	++	++	–
